“Also recorded” adds a separate entry of the source.

Experiment [1] relates to RNA3WJ_1.0.0_5IB_3FAM (cis 3WJ with one unpaired nucleotide). Briefly: Fluorescence quenching binding assay (FAM / Iowa Black). The conditions noted are these: two concentration points. The protocol:
(§1) This assay will be used to test binding of compounds for RNA three way junction (such as a 38 nt construct). This is a fluorescence quenching assay utilizing FAM as fluorescence tag and Iowa Black as quencher. Tags are attached at the 3′ and 5′ end, respectively. Stable formation of MW upon compound binding would lead to quenching of the FAM fluorescence due to close proximity of the Iowa Black tag. Assay readout: FAM (485-520 nm) Fluorescence Intensity.
(§2) Assay sample buffer used: 10 mM CacoK pH 7.2, 30 mM NaCl. Buffer preparation in Dnase/Rnase Free distilled water (Gibco Life Technologies).
(§3) Dilute the RNA 1:10 (final 10 μM) in Assay Buffer.
(§4) Heat up the diluted RNA up to 90° C. for 5 min (sealed Eppendorf Tube).
(§5) Cool down the RNA probe slowly to RT.
(§6) Dilute the compounds to 800 μM in DMSO (Assay: 8 μM).
(§7) Final concentrations in the sample: 1-10 μM RNA, 8 μM compound, 1% DMSO
(§8) Pipet 25 μL Sample Solution into Greiner cat #784076, black, 384
(§9) Measure the 96 plate with the LightCycler480 (Channel: 485/520 nm).
(§10) The fluorescence quenching experiment was repeated for compounds Ark0000013 and Ark0000014 to measure binding with:
A) RNA3WJ_1.0.0_5IB_3FAM (cis 3WJ with one unpaired nucleotide)
(§11) Both cmpds were tested at two concentration points in the fluorescence quenching assays to assess effect upon RNA constructs utilized in the study. […]

Experiment [2] relates to Split3WJ.2 up_5IB+Split3WJ.2_down_3FAM (trans 3WJ as 1:1 mix). Described as above. The settings on record: two concentration points. As for the experimental part:
as §1, §2, §3, §4, §5, §6, §7, §8, §9, §10
C) Split3WJ.2 up_5IB+Split3WJ.2_down_3FAM (trans 3WJ as 1:1 mix)
as §11

Experiment [3] has as its system Split3WJ.1_up_5IB+Split3WJ.1_down_3FAM (trans 3WJ as 1:1 mix). The description is as above. The settings on record: two concentration points. As for the experimental part: as §1, §2, §3, §4, §5, §6, §7, §8, §9, §10
B) Split3WJ.1_up_5IB+Split3WJ.1_down_3FAM (trans 3WJ as 1:1 mix)
as §11

Experiment [4] relates to Split3WJ.1_up_5IB+Split3WJ.1_down_3FAM (trans 3WJ as 1:1 mix; Split3WJ_1). In words: Thermal shift binding assay. The settings on record: 1 μM RNA, 8 μM compound, 10 mM CacoK pH 7.2, 30 mM NaCl.
From the text: (§12) Purpose: Test binding of compounds for RNA three way junction (for example, a construct of 38 nt). Thermal shift assay based on established fluorescence quenching assay utilizing FAM as fluorescence tag and Iowa Black as quencher. Tags were attached at the 3′ and 5′ end, respectively. Stable formation of 3WJ upon compound binding would lead to quenching of the FAM fluorescence due to close proximity of the Iowa Black tag. Thermal unfolding leads to increase of fluorescence emission. Assay readout: FAM (465-510 nm) Thermal Shift.
as §2, §3, §4, §5, §6
(§13) Final concentrations in the sample: 1 μM RNA, 8 μM compound, 1% DMSO
(§14) Pipet 20 μL Sample Solution into Roche, Light Cycler480 Multiwell Plate96, white, REF 04729692001.
(§15) Measure the 96 plate with the LightCycler480 (Channel: 480/510 nm; Temperature: 41-91° C.).
(§16) Analyse measurement-data with the MeltingCurveGenotyping Mode.
(§17) Settings: Acquisition mode: continuous; Ramp rate: 0.1° C./sec; Acquisition: 6° C.
(§18) Curves are fitted with raw and normalized data.
(§19) Melting curves analysis show melting temperature (Tm) of ˜51° C. Range of RNA concentrations was tested and assay window was determined (conc. range of 0.5-1 μM yields best results). The choice of buffer also affected the Tm. RNA constructs were tested under different buffer conditions (especially in presence of salt) in the thermal shift assay. […] CacoK with 30 mM salt at 1 μM RNA conc. was used to assess compound effects on 3WJ stability. […] These conditions were used for screening test compounds.
(§20) Compounds Ark0000013 and Ark0000014 were also tested in the thermal shift assay against three RNA 3WJ constructs, A) RNA3WJ_1.0.0_5IB_3FAM (cis 3WJ with one unpaired nucleotide); B) Split3WJ.1_up_5IB+Split3WJ.1_down_3FAM (trans 3WJ as 1:1 mix); and C) Split3WJ.2_up_5IB+Split3WJ.2_down_3FAM (trans 3WJ as 1:1 mix).

In experiment [5] the test system is RNA3WJ_1.0.0_5IB_3FAM (cis 3WJ with one unpaired nucleotide). Briefly: Thermal shift binding assay. The conditions noted are these: 1 μM RNA, 8 μM compound.
From the text: as §12, §2, §3, §4, §5, §6, §13, §14, §15, §16, §17, §18, §19, §20

Experiment [6] relates to Split3WJ.2_up_5IB+Split3WJ.2_down_3FAM (trans 3WJ as 1:1 mix; Split3WJ_2). In words: Thermal shift binding assay. The conditions noted are these: 1 μM RNA, 8 μM compound, 10 mM CacoK pH 7.2, 30 mM NaCl.
From the text: as §12, §2, §3, §4, §5, §6, §13, §14, §15, §16, §17, §18, §19, §20

With `CN(CCCN)CCCNC(=O)c1ccc2c(c1)C1c3cc(C(=O)NCCCN(C)CCCN)ccc3C2c2ccc(C(=O)NCCCN(C)CCCN)cc21` [Ark000013, N^2,N^7,N^15-tris(3-((3-aminopropyl)(methyl)amino)propyl)-9,10-dihydro-9,10-[1,2]benzenoanthracene-2,7,15-tricarboxamide], the “fluorescence quenching effect (FAM fluorescence signal)” value in experiment [1], in experiment [2] and in experiment [3] was “significant concentration dependent effect” each time. Also, the “Melting temp + cmpd” value in experiment [4] was 58.2 °C; in experiment [5] (10 mM CacoK pH 7.2, 30 mM NaCl) it was 87.0 °C; in experiment [6], 56.9 °C. Also, the “Temp. Shift” value in experiment [4] was ~21 °C; in experiment [4] (listed as Ark0000013) it was 20.4 °C; in experiment [5] (10 mM CacoK pH 7.2, 30 mM NaCl), 21.4 °C; in experiment [6] it was ~13 °C; in experiment [6] (listed as Ark0000013), 12.2 °C. For the same compound, the “effect in the melting curves (in words)” value in experiment [5] was “significantly lower fluorescence signal; also recorded: no proper melting curve”.

The values above are taken from patent publication US20220402883A1, “COMPOUNDS AND METHODS FOR MODULATING RNA FUNCTION” (Arrakis Therapeutics, Inc., priority 2016, published 2022).
